According to patent publication US8530667B2, “Herbicides” (Syngenta Limited, priority 2007, dated 2013):

Columns and labels:
Type in all cases: in vivo
Avena fatua (AVEFA) [1] = experiment: Example B pre-emergence herbicidal activity, glasshouse pot test; details: 312 h, Rate 250 g/ha, evaluated after 13 days, read-out: Pre-Emergence Activity AVEFA (100=total damage to plant; 0=no damage to plant)
Description: (§1) Seeds of a variety of test species were sown in standard soil in pots. After cultivation for one day (pre-emergence) or after 8 days cultivation (post-emergence) under controlled conditions in a glasshouse (at 24/16° C., day/night; 14 hours light; 65% humidity), the plants were sprayed with an aqueous spray solution derived from the formulation of the technical active ingredient in acetone/water (50:50) solution containing 0.5% Tween 20 (polyoxyethelyene sorbitan monolaurate, CAS RN 9005-64-5). The test plants were then grown in a glasshouse under controlled conditions in a glasshouse (at 24/16° C., day/night; 14 hours light; 65% humidity) and watered twice daily. After 13 days for pre and post-emergence, the test was evaluated (100=total damage to plant; 0=no damage to plant). Alopecurus myosuroides (ALOMY), Avena fatua (AVEFA), Setaria faberi (SETFA), Echinochloa crus-galli (ECHCG) and Amaranthus retoflexus (AMARE)

[2] = test system: Amaranthus retoflexus (AMARE); experiment: as above; details: Amaranthus retroflexus, 312 h, Rate 250 g/ha, evaluated after 13 days, read-out: Pre-Emergence Activity AMARE (100=total damage to plant; 0=no damage to plant)
Description: as §1

[3] = test system: Echinochloa crus-galli (ECHCG); experiment: as above; details: 312 h, Rate 250 g/ha, evaluated after 13 days, read-out: Pre-Emergence Activity ECHCG (100=total damage to plant; 0=no damage to plant)
Description: as §1

Setaria faberi (SETFA) [4] = experiment: as above; details: 312 h, Rate 250 g/ha, evaluated after 13 days, read-out: Pre-Emergence Activity SETFA (100=total damage to plant; 0=no damage to plant)
Description: as §1

[5] = test system: Alopecurus myosuroides (ALOMY); experiment: as above; details: 312 h, Rate 250 g/ha, evaluated after 13 days, read-out: Pre-Emergence Activity ALOMY (100=total damage to plant; 0=no damage to plant)
Description: as §1

Avena fatua (AVEFA) [6] = experiment: Example B post-emergence herbicidal activity, glasshouse pot test; details: 312 h, rate 250 g/ha, evaluated after 13 days, read-out: Post-emergence activity AVEFA (100=total damage to plant; 0=no damage to plant)
Description: as §1

[7] = test system: Amaranthus retoflexus (AMARE); experiment: as above; details: Amaranthus retroflexus, 312 h, rate 250 g/ha, evaluated after 13 days, read-out: Post-emergence activity AMARE (100=total damage to plant; 0=no damage to plant)
Description: as §1

[8] = test system: Echinochloa crus-galli (ECHCG); experiment: as above; details: 312 h, rate 250 g/ha, evaluated after 13 days, read-out: Post-emergence activity ECHCG (100=total damage to plant; 0=no damage to plant)
Description: as §1

Setaria faberi (SETFA) [9] = experiment: as above; details: 312 h, rate 250 g/ha, evaluated after 13 days, read-out: Post-emergence activity SETFA (100=total damage to plant; 0=no damage to plant)
Description: as §1

[10] = test system: Alopecurus myosuroides (ALOMY); experiment: as above; details: 312 h, rate 250 g/ha, evaluated after 13 days, read-out: Post-emergence activity ALOMY (100=total damage to plant; 0=no damage to plant)
Description: as §1

| SMILES | pest or weed control at 250 g/ha (Avena fatua (AVEFA) [1]) | pest or weed control at 250 g/ha [2] | pest or weed control at 250 g/ha [3] | pest or weed control at 250 g/ha (Setaria faberi (SETFA) [4]) | pest or weed control at 250 g/ha [5] | pest or weed control at 250 g/ha (Avena fatua (AVEFA) [6]) | pest or weed control at 250 g/ha [7] | pest or weed control at 250 g/ha [8] | pest or weed control at 250 g/ha (Setaria faberi (SETFA) [9]) | pest or weed control at 250 g/ha [10] |
| --- | --- | --- | --- | --- | --- | --- | --- | --- | --- | --- |
| CCc1sc(-c2ccc(SC)cc2)nc1C1C(=O)[C@@H]2[C@H](C1=O)[C@H]1CC[C@@H]2O1 (some centres unmarked) [Compound T50] | 0% | 0% | 90% | 90% | 40% | 90% | 0% | 100% | 100% | 90% |
| CCc1sc(-c2cc(F)c(Cl)cc2Cl)nc1C1C(=O)[C@@H]2[C@H](C1=O)[C@H]1CC[C@@H]2O1 (some centres unmarked) [Compound T47] | 80% | 0% | 90% | 100% | 90% | 100% | 0% | 100% | 100% | 100% |
| Cc1sc(-c2ccc(OC(F)F)cc2F)nc1C1C(=O)[C@@H]2[C@H](C1=O)[C@H]1CC[C@@H]2O1 (some centres unmarked) [Compound T54] | 100% | 0% | 100% | 100% | 90% | 100% | 40% | 100% | 100% | 100% |
| CCc1sc(-c2ccc(Cl)cc2)nc1C1=C(OC(=O)C2CC2)[C@@H]2[C@H](C1=O)[C@H]1CC[C@@H]2O1 (racemic) [Compound P4, cyclopropanecarboxylic acid-4-[2-(4-chloro-phenyl)-5-ethyl-thiazol-4-yl]-5-oxo-10-oxa-tricyclo[5.2.1.0*2,6*]dec-3-en-3-yl ester] | 90% | 0% | 90% | 90% | 60% | 100% | 0% | 100% | 100% | 100% |
| Cc1sc(-c2cccs2)nc1C1C(=O)[C@@H]2[C@H](C1=O)[C@H]1CC[C@@H]2O1 (some centres unmarked) [Compound T32] | 0% | 0% | 0% | 40% | 0% | 0% | 0% | 30% | 70% | 0% |
| CCc1sc(-c2ccc(Br)cc2C)nc1C1=C(OC(=O)c2ccc(Cl)cc2)[C@@H]2[C@H](C1=O)[C@H]1CC[C@@H]2O1 (racemic) [Compound P8] | 30% | 0% | 100% | 100% | 90% | 100% | 0% | 100% | 100% | 100% |
| Cc1sc(-c2ccc(Br)cn2)nc1C1=C(OC(=O)C2CC2)[C@@H]2[C@H](C1=O)[C@H]1CC[C@@H]2O1 (racemic) [Compound P6] | 0% | 0% | 20% | 70% | 0% | 90% | 0% | 100% | 100% | 90% |
| CCc1sc(-c2ccc(OC(F)F)cc2)nc1C1C(=O)[C@@H]2[C@H](C1=O)[C@H]1CC[C@@H]2O1 (some centres unmarked) [Compound T42] | 30% | 0% | 90% | 100% | 90% | 100% | 0% | 100% | 100% | 100% |
| CCc1sc(COc2ccc(Cl)cc2)nc1C1C(=O)[C@@H]2[C@H](C1=O)[C@H]1CC[C@@H]2O1 (some centres unmarked) [Compound T40] | 40% | 0% | 100% | 100% | 90% | 70% | 0% | 100% | 100% | 100% |
| CCc1sc(-c2ccc(Br)cc2C)nc1C1C(=O)[C@@H]2[C@H](C1=O)[C@H]1CC[C@@H]2O1 (some centres unmarked) [Compound T35] | 100% | 0% | 100% | 100% | 100% | 100% | 0% | 100% | 100% | 100% |
| Cc1cnc(-c2ccc(Cl)cc2)nc1C1C(=O)[C@@H]2[C@H](C1=O)[C@H]1CC[C@@H]2O1 (some centres unmarked) [Compound T53] | 70% | 90% | 80% | 90% | 50% | 70% | 0% | 90% | 100% | 60% |
| Cc1sc(-c2ccc(Cl)c(Cl)c2)nc1C1C(=O)[C@@H]2[C@H](C1=O)[C@H]1CC[C@@H]2O1 (some centres unmarked) [Compound T31] | 70% | 20% | 90% | 90% | 60% | 50% | 0% | 80% | 70% | 60% |
| Cc1sc(-c2ccc(OC(F)F)cc2)nc1C1C(=O)[C@@H]2[C@H](C1=O)[C@H]1CC[C@@H]2O1 (some centres unmarked) [Compound T41] | 30% | 0% | 100% | 100% | 100% | 90% | 0% | 100% | 100% | 100% |
| Cc1sc(-c2ccc(Br)cc2F)nc1C1C(=O)[C@@H]2[C@H](C1=O)[C@H]1CC[C@@H]2O1 (some centres unmarked) [Compound T36] | 80% | 0% | 100% | 100% | 90% | 100% | 30% | 100% | 100% | 100% |
